Laboratory results: ChEMBL document CHEMBL1133627, “4-Anilino-6,7-dialkoxyquinoline-3-carbonitrile inhibitors of epidermal growth factor receptor kinase and their bioisosteric relationship to the 4-anilino-6,7-dialkoxyquinazoline inhibitors” (J Med Chem, 2000)

Columns and labels:
SW-620 = experiment: Concentration needed to inhibit 50% growth of human SW620 (colon carcinoma) cell lines; assay type: functional, cell-based
[1] = target: Epidermal growth factor receptor and ErbB2 (HER1 and HER2) (Homo sapiens, UniProt P04626+P00533); experiment: Concentration needed to inhibit the autophosphorylation of the cytoplasmic domain of Epidermal growth factor receptor using DELFIA/time-resolved fluorimetry.; assay type: protein assay
A-431 = experiment: Concentration needed to inhibit 50% growth of the human A431 (epidermoid carcinoma) cell lines; assay type: functional, cell-based
SK-BR-3 = experiment: Concentration needed to inhibit 50% growth of human SKBr3 (breast carcinoma) cell lines; assay type: functional, cell-based

`CCOc1cc2ncc(C#N)c(Nc3cccc(Br)c3)c2cc1OCC` gave an IC50 (SW-620) of 0.16 µM, an IC50 [1] of 0.42 µM and an IC50 (A-431) of 0.11 µM. For the same molecule, the IC50 (SK-BR-3) was 0.09 µM.
Work on `COc1cc2c(C#N)cnc(Nc3cccc(Cl)c3)c2cc1OC` yielded an IC50 (SW-620) of 64.5 µM, an IC50 [1] of 88.29 µM and an IC50 (A-431) of 26.1 µM. It also gave an IC50 (SK-BR-3) of 27.7 µM.
`COc1cc2ncc(C=O)c(Nc3cccc(Br)c3)c2cc1OC` showed an IC50 (SW-620) of 5.24 µM, an IC50 [1] of 3.37 µM and an IC50 (A-431) of 1.95 µM. The IC50 (SK-BR-3) was 2.97 µM.
In the case of `COc1cc2ncc(C#N)c(Nc3ccc(C)c(Cl)c3)c2cc1OC`, the IC50 (SW-620) is reported as 25 µM, the IC50 [1] is reported as 1.48 µM and the IC50 (A-431) is reported as 0.93 µM. The IC50 (SK-BR-3) was 0.94 µM.
`COc1cc2ncc(C#N)c(Nc3cccc(Cl)c3)c2cc1OC` gave an IC50 (SW-620) of 7.06 µM, an IC50 [1] of 0.18 µM and an IC50 (A-431) of 0.59 µM. It also gave an IC50 (SK-BR-3) of 1.76 µM.
`COc1cc2ncc(C#N)c(Nc3ccccc3Br)c2cc1OC` gave an IC50 (SW-620) of 17 µM, an IC50 [1] of 4.18 µM and an IC50 (A-431) of 21 µM. It also gave an IC50 (SK-BR-3) of 0.8 µM.
Work on `COc1cc2ncc(C#N)c(Nc3cccc(C(C)C)c3)c2cc1OC` yielded an IC50 (SW-620) of 3.8 µM, an IC50 [1] of 62.32 µM and an IC50 (A-431) of 4.35 µM. For the same molecule, the IC50 (SK-BR-3) was 6.74 µM.
In the case of `COc1cc2ncc(C#N)c(Nc3cccc(N)c3)c2cc1OC`, the IC50 (SW-620) is reported as 14.3 µM, the IC50 [1] is reported as 0.82 µM and the IC50 (A-431) is reported as 6.62 µM. The IC50 (SK-BR-3) was 2.45 µM.
Molecule `COc1cc2ncc(C#N)c(Nc3ccc(Br)c(C)c3)c2cc1OC` has an IC50 (SW-620) of 3.09 µM, an IC50 [1] of 0.62 µM and an IC50 (A-431) of 0.73 µM. It also gave an IC50 (SK-BR-3) of 1.38 µM.
Work on `CCOc1cc2c(Nc3cccc(Br)c3)c(C#N)cnc2cc1OC` yielded an IC50 (SW-620) of 4.24 µM, an IC50 [1] of 21.19 µM and an IC50 (A-431) of 0.57 µM. For the same molecule, the IC50 (SK-BR-3) was 0.64 µM.
For `COc1cc2ncc(C#N)c(Nc3cccc(O)c3)c2cc1OC`, the IC50 (SW-620) was 7.8 µM, the IC50 [1] was 6.36 µM and the IC50 (A-431) was 1.52 µM. It also gave an IC50 (SK-BR-3) of 0.95 µM.
Work on `COc1cc2ncc(C#N)c(Nc3ccc(O)c(Cl)c3)c2cc1OC` yielded an IC50 (SW-620) of 2.75 µM, an IC50 [1] of 9.04 µM and an IC50 (A-431) of 3.01 µM. For the same molecule, the IC50 (SK-BR-3) was 1.29 µM.
In the case of `COc1cc2ncc(C#N)c(Nc3cccc(C#N)c3)c2cc1OC`, the IC50 (SW-620) is reported as 43.3 µM, the IC50 [1] is reported as 14.18 µM and the IC50 (A-431) is reported as 3.51 µM. The IC50 (SK-BR-3) was 26 µM.
`COc1cc2ncc(C#N)c(Nc3cccc(Br)c3)c2cc1OC` gave an IC50 (SW-620) of 3.72 µM, an IC50 (A-431) of 0.78 µM and an IC50 (SK-BR-3) of 0.48 µM.
Work on `COCOc1cc2ncc(C#N)c(Nc3cccc(Br)c3)c2cc1OCOC` yielded an IC50 (SW-620) of 9.79 µM, an IC50 [1] of 6.75 µM and an IC50 (A-431) of 14.5 µM. For the same molecule, the IC50 (SK-BR-3) was 14.2 µM.
`COc1cc2ncc(C#N)c(Nc3ccc(C)c(Br)c3)c2cc1OC` gave an IC50 (SW-620) of 2.89 µM, an IC50 [1] of 1.79 µM and an IC50 (A-431) of 0.75 µM. For the same molecule, the IC50 (SK-BR-3) was 0.55 µM.
In the case of `N#Cc1cnc2cc3c(cc2c1Nc1cccc(Br)c1)OCCO3`, the IC50 (SW-620) is reported as 0.43 µM, the IC50 [1] is reported as greater than 104.7 µM and the IC50 (A-431) is reported as 0.42 µM. It also gave an IC50 (SK-BR-3) of 0.27 µM.
`CCOc1cc2ncc(C#N)c(Nc3cccc(Br)c3)c2cc1OC` gave an IC50 (SW-620) of 0.06 µM, an IC50 [1] of 33.02 µM and an IC50 (A-431) of 0.14 µM. For the same molecule, the IC50 (SK-BR-3) was 0.06 µM.
With `COc1cc2ncc(C#N)c(Nc3ccc(Cl)cc3F)c2cc1OC` the IC50 (SW-620) was 5.34 µM, the IC50 [1] was 13.85 µM and the IC50 (A-431) was 0.818 µM. For the same molecule, the IC50 (SK-BR-3) was 0.54 µM.
`COc1cc2ncc(C#N)c(Nc3cccc(Br)c3C)c2cc1OC` showed an IC50 (SW-620) of 11.8 µM, an IC50 [1] of 0.84 µM and an IC50 (A-431) of 3.64 µM. The IC50 (SK-BR-3) was 0.39 µM.
In the case of `COc1cc2ncc(C#N)c(Nc3cccc(SC)c3)c2cc1OC.Cl`, the IC50 (SW-620) is reported as 4.98 µM, the IC50 [1] is reported as 0.76 µM and the IC50 (A-431) is reported as 1.45 µM. It also gave an IC50 (SK-BR-3) of 1.54 µM.
Work on `COc1cc2ncc(C#N)c(Nc3ccc(Br)cc3F)c2cc1OC.Cl` yielded an IC50 (SW-620) of 19.2 µM, an IC50 [1] greater than 91.2 µM and an IC50 (A-431) of 0.89 µM. It also gave an IC50 (SK-BR-3) of 1.69 µM.
Work on `COc1cc2ncc(C#N)c(Nc3cccc(C(N)=O)c3)c2cc1OC` yielded an IC50 (SW-620) of 6.29 µM, an IC50 [1] of 7.69 µM and an IC50 (A-431) of 5.91 µM. For the same molecule, the IC50 (SK-BR-3) was 8.44 µM.
With `CCOc1cc2ncc(C#N)c(Nc3ccc(F)c(Cl)c3)c2cc1OCC` the IC50 (SW-620) was 0.49 µM, the IC50 [1] was 0.98 µM and the IC50 (A-431) was 0.27 µM. It also gave an IC50 (SK-BR-3) of 0.49 µM.
Work on `COc1cc2ncc(C#N)c(Nc3cccc(NC(C)=O)c3)c2cc1OC` yielded an IC50 (SW-620) of 2.74 µM, an IC50 [1] of 69.4 µM and an IC50 (A-431) of 2.62 µM. For the same molecule, the IC50 (SK-BR-3) was 1.55 µM.
In the case of `N#Cc1cnc2cc3c(cc2c1Nc1cccc(Br)c1)OCCCO3`, the IC50 (SW-620) is reported as 2.9 µM, the IC50 [1] is reported as 5.15 µM and the IC50 (A-431) is reported as 2.08 µM. It also gave an IC50 (SK-BR-3) of 5.07 µM.
`COc1cc2ncc(C#N)c(Nc3cc(Cl)c(O)c(Cl)c3)c2cc1OC` showed an IC50 (SW-620) of 3.43 µM, an IC50 [1] of 3.15 µM and an IC50 (A-431) of 3.14 µM. It also gave an IC50 (SK-BR-3) of 2.02 µM.
`COc1cc2ncc(C#N)c(Nc3ccc(F)cc3)c2cc1OC` showed an IC50 (SW-620) of 2.87 µM, an IC50 [1] of 47.94 µM and an IC50 (A-431) of 1.43 µM. The IC50 (SK-BR-3) was 0.74 µM.
Work on `COc1cc2ncc(CO)c(Nc3cccc(Br)c3)c2cc1OC` yielded an IC50 (SW-620) of 23.2 µM, an IC50 [1] greater than 102.2 µM and an IC50 (A-431) of 7.91 µM. The IC50 (SK-BR-3) was 15.4 µM.
With `CCOC(=O)c1cnc2cc(OC)c(OC)cc2c1Nc1cccc(Br)c1` the IC50 (SW-620) was 6.93 µM, the IC50 [1] was greater than 81.3 µM and the IC50 (A-431) was 3.01 µM. It also gave an IC50 (SK-BR-3) of 6.21 µM.
Work on `COc1cc2ncc(C(=O)O)c(Nc3cccc(Br)c3)c2cc1OC` yielded an IC50 (SW-620) of 53.8 µM, an IC50 [1] of 34.22 µM and an IC50 (A-431) of 18.2 µM. For the same molecule, the IC50 (SK-BR-3) was 35.7 µM.
